Laboratory results reported in patent US20240216401A1, “COMBINATION THERAPY BY USING AKR1C3-ACTIVATED COMPOUND WITH IMMUNE CHECKPOINT INHIBITOR” (OBI Pharma, Inc., priority 2021, published 2024).
Where “and” joins values, the source holds several entries; their conditions need not be identical. Equal values may be shown once.

Legend:
[1] = test system: NK cells in tumor-infiltrating lymphocytes; assay: Example 2: flow cytometry, percentage of NK cells in TILs; type: in vivo, Mus musculus; conditions: individual animals and Mean
Protocol: (§1) Mice were sacrificed by CO2 euthanasia at the end of the study duration, and the connective tissue around tumor was resected. The tumor samples were then weighed and cut equally into three sections if the tumor weight over 400 mg. The tumor tissue was prepared for the isolation of tumor-infiltrating lymphocytes (TILs). The rest of one section was fixed in 10% formaldehyde and embedded in paraffin; the other was stored at a temperature below −70° C.
(§2) The tumor samples were dissected into smaller fragments using scalpels and then digested with a cocktail of collagenase, DNase I, and Hyaluronidase (Collagenase #C5138, DNase I #D5025, Hyaluronidase #H6254, SigmaAldrich) for at least 2 hours.
(§3) Cells were stained with the fluorescently conjugated surface antibodies and incubated for 30 minutes at 4° C., and then resuspended in staining buffer for flow cytometric analysis. Flow cytometry was done using a Navios EX Flow Cytometer (Beckman Coulter). Data were analyzed using the Kaluza Analysis Software (Beckman Coulter).

[2] = test system: T helper (TH) cells (CD45^+CD4^+ T cells) in tumor-infiltrating lymphocytes; assay: Example 2: flow cytometry, percentage of TH cells in TILs; type: in vivo, Mus musculus
Protocol: as §1, §2, §3

[3] = G2: OBI-3424 (0.3 mg/kg), 0.3 mg/kg
[4] = G2: OBI-3424 (0.3 mg/kg), 0.3 mg/kg, mean
[5] = G3: OBI-3424 (1 mg/kg), 1 mg/kg
[6] = G3: OBI-3424 (1 mg/kg), 1 mg/kg, mean
[7] = G2: OBI-3424 (0.3 mg/kg), group Mean
[8] = G2: OBI-3424 (0.3 mg/kg), individual animals, 0.3 mg/kg

## C[C@H](OP(=O)(N1CC1)N1CC1)c1ccc([N+](=O)[O-])c(Oc2cccc(C(=O)N(C)C)c2)c1 [OBI-3424, (S)-1-(3-(3-N,N-dimethylaminocarbonyl)phenoxyl-4-mtrophenyl)-1-ethyl-N,N′-bis(ethylene)phosphoramidate]
[1]; [3]
  NK cells (CD45^+CD56^+) CD45^+ Gated %: 6.33% and 8.78% and 8.87% and 10.05% and 2.25% and 6.70%
  NK cells (CD45^+CD56^+) Cell count: 2.30 ×10^5 and 6.67 ×10^5 and 20.68 ×10^5 and 1.46 ×10^5 and 2.47 ×10^5 and 1.84 ×10^5
  NK cells (CD45^+CD56^+) Total %: 1.18% and 3.26% and 3.83% and 6.83% and 1.00% and 2.54%
  PD-1^+ NK cells (CD45^+CD56^+PD-1^+) Cell count: 1.65 ×10^5 and 2.21 ×10^5 and 10.85 ×10^5 and 0.31 ×10^5 and 2.17 ×10^5 and 0.83 ×10^5
  PD-1^+ NK cells (CD45^+CD56^+PD-1^+) NK Gated %: 71.96% and 33.17% and 52.46% and 21.08% and 87.65% and 44.79%
  PD-1^+ NK cells (CD45^+CD56^+PD-1^+) Total %: 0.85% and 1.08% and 2.01% and 1.44% and 0.88% and 1.14%
[1]; [4]
  NK cells (CD45^+CD56^+) CD45^+ Gated %: 7.16%
  NK cells (CD45^+CD56^+) Cell count: 5.90 ×10^5
  NK cells (CD45^+CD56^+) Total %: 3.11%
  PD-1^+ NK cells (CD45^+CD56^+PD-1^+) Cell count: 3.00 ×10^5
  PD-1^+ NK cells (CD45^+CD56^+PD-1^+) NK Gated %: 51.85%
  PD-1^+ NK cells (CD45^+CD56^+PD-1^+) Total %: 1.23%
[1]; [5]
  NK cells (CD45^+CD56^+) CD45^+ Gated %: 3.99% (2×) and 5.65% and 6.00% and 4.05% and 4.24%
  NK cells (CD45^+CD56^+) Cell count: 0.77 ×10^5 and 4.27 ×10^5 and 2.08 ×10^5 and 2.41 ×10^5 and 1.96 ×10^5 and 1.99 ×10^5
  NK cells (CD45^+CD56^+) Total %: 2.64% and 3.38% and 2.95% and 2.44% and 2.63% and 2.46%
  PD-1^+ NK cells (CD45^+CD56^+PD-1^+) Cell count: 0.26 ×10^5 and 1.64 ×10^5 and 1.02 ×10^5 and 1.77 ×10^5 (2×) and 1.04 ×10^5
  PD-1^+ NK cells (CD45^+CD56^+PD-1^+) NK Gated %: 34.34% and 38.34% and 48.85% and 73.40% and 53.12% and 88.62%
  PD-1^+ NK cells (CD45^+CD56^+PD-1^+) Total %: 0.91% and 1.30% and 1.44% and 1.79% and 1.40% and 2.18%
[1]; [6]
  NK cells (CD45^+CD56^+) CD45^+ Gated %: 4.65%
  NK cells (CD45^+CD56^+) Cell count: 2.25 ×10^5
  NK cells (CD45^+CD56^+) Total %: 2.75%
  PD-1^+ NK cells (CD45^+CD56^+PD-1^+) Cell count: 1.25 ×10^5
  PD-1^+ NK cells (CD45^+CD56^+PD-1^+) NK Gated %: 56.11%
  PD-1^+ NK cells (CD45^+CD56^+PD-1^+) Total %: 1.50%
[2]; Example 2, mean±SEM, OBI-3424 1 mg/kg, alone (G3) or with anti-hPD-1 (G6)
  TH cells (CD45^+CD4^+ T cells) in TILs: 25.05±2.08%
[2]; [7]
  CD25^+ TH cells (CD45^+CD4^+ CD25^+) Total %: 2.46%
  CD25^+ TH cells (CD45^+CD4^+CD25^+) Cell count (×10^5): 4.93 ×10^5
  CD25^+ TH cells (CD45^+CD4^+CD25^+) TH Gated %: 18.22%
  CD69^+ TH cells (CD45^+CD4^+CD69^+) Cell count (×10^5): 13.89 ×10^5
  CD69^+ TH cells (CD45^+CD4^+CD69^+) TH Gated %: 60.13%
  CD69^+ TH cells (CD45^+CD4^+CD69^+) Total %: 8.46%
  Foxp3^+ Treg cells (CD45^+CD4^+CD25^+Foxp3^+) Cell count (×10^5): 0.24 ×10^5
  Foxp3^+ Treg cells (CD45^+CD4^+CD25^+Foxp3^+) TH Gated %: 5.27%
  Foxp3^+ Treg cells (CD45^+CD4^+CD25^+Foxp3^+) Total %: 0.12%
  PD-1^+ TH cells (CD45^+CD4^+ PD-1^+) Cell count (×10^5): 20.36 ×10^5
  PD-1^+ TH cells (CD45^+CD4^+ PD-1^+) TH Gated %: 93.96%
  PD-1^+ TH cells (CD45^+CD4^+ PD-1^+) Total %: 12.11%
  TH cells (CD45^+CD4^+) CD45^+ Gated %: 33.51%
  TH cells (CD45^+CD4^+) Cell count (×10^5): 21.50 ×10^5
  TH cells (CD45^+CD4^+) Total %: 12.88%
[2]; [8]
  CD25^+ TH cells (CD45^+CD4^+ CD25^+) Total %: 1.65% and 2.12% and 4.23% and 2.84%
  CD25^+ TH cells (CD45^+CD4^+CD25^+) Cell count (×10^5): 4.34 ×10^5 and 3.39 ×10^5 and 8.91 ×10^5 and 0.45 ×10^5 and 10.43 ×10^5 and 2.06 ×10^5
